Literature values in patent publication US6448244B1, “Water soluble azoles as broad-spectrum antifungals” (Janssen Pharmaceutica N.V., priority 1998, dated 2002).

Conditions: Saksena et al., Bioorg. Med. Chem. Lett. (1995), 5(2), 127-132

**Q.** With `CN(C)CCn1ncn(-c2ccc(N3CCN(c4ccc(OC[C@@H]5CO[C@@](Cn6cncn6)(c6ccc(F)cc6F)C5)cc4)CC3)cc2)c1=O` (relative stereo) [(3R-cis)-4-[4-[4-[4-[[5-(2,4-difluorophenyl)tetrahydro-5-(1H-1,2,4-triazol-1-ylmethyl)-3-furanyl]methoxy]phenyl]-1-piperazinyl]phenyl]-2-[2-(dimethylamino)ethyl]-2,4-dihydro-3H-1,2,4-triazol-3-one] as the compound, how does the “antifungal activity compared to SCH 51048” value read?
**A.** Its value is “profoundly less active”.
